According to ChEMBL document CHEMBL1201862, “PubChem BioAssay data set” (2004):
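Dose response: 5 concentrations. Exposure: 48 h. Format: 96-well plates. Endpoint: linear interpolation; highest concentration if not reached. Abbreviation: GI50, concentration required for 50% inhibition of growth.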 Activity calls are given as the source filed them. No stated cut-off is given here; in the data, active = GI50 up to about 1.1 µM and inactive = higher.

Legend:
Experiment in all cases: NCI anticancer screen, dose series, 48 h
CCRF-CEM = system: CCRF-CEM
HL-60 = system: HL-60
K562 = system: K562
KM12 = system: KM12
NCI-H460 = system: NCI-H460
OVCAR-3 = system: OVCAR-3
RXF 393 = system: RXF 393
SF-539 = system: SF-539
SK-MEL-28 = system: SK-MEL-28
SK-MEL-5 = system: SK-MEL-5
SK-OV-3 = system: SK-OV-3
TK-10 = system: TK-10
U-251 = system: U-251
UO-31 = system: UO-31
HCT-116 = system: HCT-116
HOP-62 = system: HOP-62
OVCAR-4 = system: OVCAR-4
CAKI-1 = system: CAKI-1

Measured: GI50

COC(=O)Cc1cc(=O)[nH]c2c1C(=O)CCC2
inactive: CCRF-CEM > 100 µM | HL-60 > 100 µM | K562 > 100 µM | KM12 > 100 µM | NCI-H460 > 100 µM | OVCAR-3 > 100 µM | RXF 393 > 100 µM | SF-539 > 100 µM | SK-MEL-28 > 100 µM | SK-MEL-5 > 100 µM | SK-OV-3 > 100 µM | TK-10 > 100 µM | U-251 > 100 µM | UO-31 > 100 µM

NC1=NC(=O)C(CC(=O)Nc2ccc([N+](=O)[O-])cc2[N+](=O)[O-])S1 (centres undefined)
inactive: CCRF-CEM > 100 µM | HCT-116 > 100 µM | HL-60 83.2 µM | HOP-62 > 100 µM | KM12 > 100 µM | NCI-H460 > 100 µM | OVCAR-3 > 100 µM | OVCAR-4 > 100 µM | RXF 393 > 100 µM | SK-MEL-28 > 100 µM | SK-MEL-5 > 100 µM | TK-10 > 100 µM | U-251 > 100 µM | UO-31 > 100 µM

CSc1cnc2ccccc2c1Sc1c[nH]c2ccccc2c1=O
inactive: CCRF-CEM 4.52 µM | HCT-116 9.48 µM | HL-60 3.3 µM | HOP-62 12.2 µM | K562 3.46 µM | KM12 6.82 µM | NCI-H460 6.75 µM | OVCAR-3 5.22 µM | OVCAR-4 14.1 µM | RXF 393 13.7 µM | SF-539 11.5 µM | SK-MEL-28 11.1 µM | SK-MEL-5 6.25 µM | SK-OV-3 3.51 µM | TK-10 36 µM | U-251 6.49 µM | UO-31 14 µM

O=S(=O)(O)CS(=O)(=O)OCCCl
inactive: CAKI-1 > 100 µM | HCT-116 > 100 µM | HL-60 > 100 µM | HOP-62 > 100 µM | K562 > 100 µM | KM12 > 100 µM | NCI-H460 > 100 µM | OVCAR-3 > 100 µM | OVCAR-4 > 100 µM | RXF 393 > 100 µM | SF-539 > 100 µM | SK-MEL-28 > 100 µM | SK-MEL-5 > 100 µM | SK-OV-3 > 100 µM | TK-10 > 100 µM | U-251 > 100 µM | UO-31 > 100 µM

COc1ccc(NC(=O)CC(=O)n2nc(-c3ccccc3)c(/N=N/c3ccccc3C(=O)O)c2-c2ccccc2)cc1
inactive: CAKI-1 > 100 µM | CCRF-CEM > 100 µM | HCT-116 > 100 µM | HOP-62 30.1 µM | K562 52.7 µM | KM12 > 100 µM | OVCAR-3 > 100 µM | OVCAR-4 92.5 µM | RXF 393 28.8 µM | SF-539 55.1 µM | SK-MEL-28 74.5 µM | SK-MEL-5 > 100 µM | SK-OV-3 15.9 µM | TK-10 > 100 µM | U-251 42.6 µM | UO-31 > 100 µM

COC1/C(=C\C(C)=O)c2ccccc2N1C(C)=O (centres undefined)
inactive: CAKI-1 > 100 µM | CCRF-CEM > 100 µM | HCT-116 > 100 µM | HL-60 > 100 µM | HOP-62 > 100 µM | K562 > 100 µM | KM12 > 100 µM | NCI-H460 > 100 µM | OVCAR-3 > 100 µM | OVCAR-4 > 100 µM | RXF 393 > 100 µM | SF-539 > 100 µM | SK-MEL-28 > 100 µM | SK-OV-3 > 100 µM | U-251 > 100 µM | UO-31 > 100 µM

COc1ccc2c(c1)[n+]([O-])c(C(N)=O)c(N)[n+]2[O-]
inactive: CAKI-1 > 100 µM | HCT-116 > 100 µM | HL-60 40.8 µM | HOP-62 > 100 µM | K562 > 100 µM | KM12 59.2 µM | NCI-H460 54.6 µM | OVCAR-3 32.7 µM | OVCAR-4 > 100 µM | SF-539 > 100 µM | SK-MEL-28 > 100 µM | SK-MEL-5 40.1 µM | SK-OV-3 > 100 µM | U-251 86.7 µM | UO-31 > 100 µM

CCOC(=O)C/C(=N\c1cc(C)on1)N(CC)CC.[O-][Cl+3]([O-])([O-])O
inactive: CAKI-1 > 100 µM | CCRF-CEM > 100 µM | HCT-116 > 100 µM | HOP-62 > 100 µM | K562 > 100 µM | KM12 > 100 µM | NCI-H460 > 100 µM | OVCAR-3 > 100 µM | SF-539 > 100 µM | SK-MEL-28 > 100 µM | SK-MEL-5 > 100 µM | SK-OV-3 > 100 µM | TK-10 > 100 µM | U-251 > 100 µM | UO-31 > 100 µM

CC(=O)CC(=O)CCCC(=O)Nc1ccc(Cl)cc1C
inactive: CAKI-1 > 100 µM | CCRF-CEM > 100 µM | HCT-116 > 100 µM | HL-60 > 100 µM | K562 > 100 µM | KM12 > 100 µM | NCI-H460 > 100 µM | OVCAR-3 > 100 µM | OVCAR-4 > 100 µM | SF-539 > 100 µM | SK-MEL-5 > 100 µM | SK-OV-3 > 100 µM | TK-10 > 100 µM | U-251 > 100 µM | UO-31 > 100 µM

O=[N+]([O-])c1cc2c(cc1O)[nH]c1cccc([N+](=O)[O-])c12
inactive: CAKI-1 > 100 µM | CCRF-CEM > 100 µM | HCT-116 > 100 µM | HL-60 > 100 µM | HOP-62 > 100 µM | K562 > 100 µM | KM12 > 100 µM | NCI-H460 > 100 µM | OVCAR-3 > 100 µM | OVCAR-4 > 100 µM | SF-539 > 100 µM | SK-MEL-28 > 100 µM | SK-MEL-5 40.7 µM | TK-10 > 100 µM | UO-31 > 100 µM

CCn1c(O)c(C(=O)Nc2cccs2)c(=O)n(CC)c1=S
inactive: CAKI-1 22.6 µM | CCRF-CEM 26.7 µM | HCT-116 19.2 µM | HL-60 19.8 µM | HOP-62 21.6 µM | K562 21.9 µM | KM12 16.8 µM | NCI-H460 15.5 µM | OVCAR-3 16.6 µM | OVCAR-4 15.3 µM | SF-539 18.5 µM | SK-MEL-28 17.3 µM | SK-MEL-5 18 µM | SK-OV-3 26.7 µM | TK-10 29 µM | U-251 11.4 µM

COc1ccc(/C(Cl)=C/c2ccc(Cl)c(Cl)c2)cc1
inactive: CCRF-CEM 21.9 µM | HCT-116 22.7 µM | HL-60 17.3 µM | HOP-62 27.5 µM | K562 35.1 µM | OVCAR-4 41.5 µM | RXF 393 15.2 µM | SF-539 43.7 µM | SK-MEL-28 38.2 µM | SK-MEL-5 18 µM | SK-OV-3 37.8 µM | U-251 21.5 µM | UO-31 26.5 µM

COc1ccc(Br)c(CCCCC(=O)O)c1
inactive: CAKI-1 > 100 µM | CCRF-CEM > 100 µM | HCT-116 > 100 µM | HL-60 > 100 µM | HOP-62 > 100 µM | K562 > 100 µM | NCI-H460 > 100 µM | OVCAR-3 > 100 µM | OVCAR-4 > 100 µM | RXF 393 > 100 µM | SF-539 > 100 µM | SK-MEL-28 > 100 µM | SK-MEL-5 > 100 µM | SK-OV-3 > 100 µM | TK-10 > 100 µM | U-251 > 100 µM
